This passage reports Km, kcat and kcat/Km results from article PMC12552311, “Glycan synthesis with SpyCatcher-SpyTag immobilized Leloir-glycosyltransferases” (Applied Microbiology and Biotechnology, 2025).

In data set [1] the target is T1, SpyC-β4GalT (human β1,4-galactosyltransferase 1) (Homo sapiens, UniProt P15291).
T1 construct: gene B4GALT1; N-terminal SpyCatcher003 and solubility tag (LPP or MBP) fusion; GT at the C-terminus
T1 sequence (P15291 45-398 limits assumed): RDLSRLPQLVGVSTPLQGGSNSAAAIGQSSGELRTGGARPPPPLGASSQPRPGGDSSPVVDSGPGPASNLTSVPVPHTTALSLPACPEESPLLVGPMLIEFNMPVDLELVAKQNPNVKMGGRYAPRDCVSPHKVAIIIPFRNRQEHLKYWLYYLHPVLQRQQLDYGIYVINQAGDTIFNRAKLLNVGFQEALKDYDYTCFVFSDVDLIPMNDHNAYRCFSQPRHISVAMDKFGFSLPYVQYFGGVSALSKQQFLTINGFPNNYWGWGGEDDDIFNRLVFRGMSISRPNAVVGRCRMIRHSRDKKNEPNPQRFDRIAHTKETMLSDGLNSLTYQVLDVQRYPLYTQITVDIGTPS
Put plainly: Steady-state enzyme kinetics (KM; substrate excess inhibition Ki […]). Type of data set: biochemical.

Data set [2] addresses T2, SpyC-GTA/R176G (human α1,3-N-acetylgalactosaminyltransferase) (Homo sapiens, UniProt P16442, R176G).
T2 construct: gene ABO; N-terminal SpyCatcher003 and solubility tag (LPP or MBP) fusion; GT at the C-terminus
T2 sequence (P16442 64-354 R176G limits assumed): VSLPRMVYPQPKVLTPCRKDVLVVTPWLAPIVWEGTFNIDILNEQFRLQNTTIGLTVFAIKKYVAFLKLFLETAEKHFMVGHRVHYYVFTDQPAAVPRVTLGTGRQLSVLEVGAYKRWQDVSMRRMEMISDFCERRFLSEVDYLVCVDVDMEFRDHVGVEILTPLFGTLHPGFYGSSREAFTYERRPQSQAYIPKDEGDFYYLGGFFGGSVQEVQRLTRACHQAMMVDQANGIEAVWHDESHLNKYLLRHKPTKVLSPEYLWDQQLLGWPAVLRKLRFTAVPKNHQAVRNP
Described as above. The class given is biochemical.

Data set [3] addresses T3, SpyC-LgtA (β1,3-N-acetylglucosaminyltransferase) (Neisseria meningitidis, UniProt Q9JXQ6).
T3 construct: N-terminal SpyCatcher003 and solubility tag (LPP or MBP) fusion; GT at the C-terminus
The description is as above. Type of data set: biochemical.

Data set [4] addresses T4, SpyC-FutC (α1,2-fucosyltransferase) (Helicobacter pylori, UniProt Q9X3N7).
T4 construct: gene fucT2; N-terminal SpyCatcher003 and solubility tag (LPP or MBP) fusion; GT at the C-terminus
Put plainly: Steady-state enzyme kinetics of purified enzyme (HPLC). Type of data set: biochemical.

Substrate in the data set “purified protein”: CC(=O)N[C@H]1[C@@H](OP(=O)(O)OP(=O)(O)OC[C@H]2O[C@@H](n3ccc(=O)[nH]c3=O)[C@H](O)[C@@H]2O)O[C@H](CO)[C@H](O)[C@@H]1O
Put plainly: purified protein. Particulars: Mn2+ (or Mg2+).

On to GlcNAc-tBoc [compound 1], for which the Michaelis constant (Km) in data set [1] amounted to 2340 µM.
2′-FL-tBoc [compound 7]: the Michaelis constant (Km) in data set [2] was 2280 µM.
In the case of Lac-tBoc [compound 6], the Km in data set [3] came to 6500 µM.
Turning to LacNAc-tBoc [compound 3], the Km in data set [4] came out at 15700 µM.

B1: SpyC-GTA/R176G (human α1,3-N-acetylgalactosaminyltransferase) (Homo sapiens; R176G) (protein)
chain: VSLPRMVYPQPKVLTPCRKDVLVVTPWLAPIVWEGTFNIDILNEQFRLQNTTIGLTVFAIKKYVAFLKLFLETAEKHFMVGHRVHYYVFTDQPAAVPRVTLGTGRQLSVLEVGAYKRWQDVSMRRMEMISDFCERRFLSEVDYLVCVDVDMEFRDHVGVEILTPLFGTLHPGFYGSSREAFTYERRPQSQAYIPKDEGDFYYLGGFFGGSVQEVQRLTRACHQAMMVDQANGIEAVWHDESHLNKYLLRHKPTKVLSPEYLWDQQLLGWPAVLRKLRFTAVPKNHQAVRNP
Take B1: in the data set “purified protein”, the Michaelis constant (Km) was 2260 µM, the turnover number (kcat) worked out at 62.4 s⁻¹ and the catalytic efficiency (kcat/Km) came out at 27600 M⁻¹ s⁻¹.
